According to patent publication US9938269B2, “Inhibitor compounds of phosphodiesterase type 10A” (ABBVIE INC., priority 2011, dated 2018):
Where a name gives a salt, the structure may show the parent alone.

How the values were obtained:
[1] = Determination of the microsomal half-life, rat liver microsomes; details: rat, liver microsomes, pH 7.4
Protocol: The test substances were incubated in a concentration of 0.5 μM as follows:
0.5 μM test substance are preincubated together with liver microsomes from different species (from rat, human or other species) (0.25 mg of microsomal protein/10 in 0.05 M potassium phosphate buffer of pH 7.4 in microtiter plates at 37° C. for 5 min. The reaction is started by adding NADPH (1 mg/mL). After 0, 5, 10, 15, 20 and 30 min., 50 μl aliquots are removed, and the reaction is immediately stopped and cooled with the same volume of acetonitrile. The samples are frozen until analyzed. The remaining concentration of undegraded test substance is determined by MSMS. The half-life (T½) is determined from the gradient of the signal of test substance/unit time plot, it being possible to calculate the half-life of the test substance, assuming first order kinetics, from the decrease in the concentration of the compound with time. The microsomal clearance (mCl) is calculated from mCl=ln 2/T½/(content of microsomal protein in mg/ml)×1000 [ml/min/mg]

PDE10A (human) = target: T1, PDE10A (human) (Homo sapiens, UniProt Q9Y233); assay: Measurement of PDE activity (HTRF cAMP kit), human PDE10A; assay type: biochemical; details: PDE enzymatic reaction, substrate 20 nM for PDE10, 60 minutes at 29 C
T1 construct: purchased BPS Bioscience
How it was run: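 Recombinant human PDE10A (10–250 pM range across PDEs) with 20 nM cAMP substrate in 20 mM Tris-HCl pH 7.5, 10 mM MgCl2, 0.1% BSA, compound pre-mixed with enzyme. Ran 60 min at 29 °C. Remaining cAMP read by HTRF, converted to % of uninhibited activity, and IC50 fitted.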

[2] = Determination of the microsomal half-life, human liver microsomes; details: human, liver microsomes, pH 7.4

T1 sequence (Q9Y233 whole entry): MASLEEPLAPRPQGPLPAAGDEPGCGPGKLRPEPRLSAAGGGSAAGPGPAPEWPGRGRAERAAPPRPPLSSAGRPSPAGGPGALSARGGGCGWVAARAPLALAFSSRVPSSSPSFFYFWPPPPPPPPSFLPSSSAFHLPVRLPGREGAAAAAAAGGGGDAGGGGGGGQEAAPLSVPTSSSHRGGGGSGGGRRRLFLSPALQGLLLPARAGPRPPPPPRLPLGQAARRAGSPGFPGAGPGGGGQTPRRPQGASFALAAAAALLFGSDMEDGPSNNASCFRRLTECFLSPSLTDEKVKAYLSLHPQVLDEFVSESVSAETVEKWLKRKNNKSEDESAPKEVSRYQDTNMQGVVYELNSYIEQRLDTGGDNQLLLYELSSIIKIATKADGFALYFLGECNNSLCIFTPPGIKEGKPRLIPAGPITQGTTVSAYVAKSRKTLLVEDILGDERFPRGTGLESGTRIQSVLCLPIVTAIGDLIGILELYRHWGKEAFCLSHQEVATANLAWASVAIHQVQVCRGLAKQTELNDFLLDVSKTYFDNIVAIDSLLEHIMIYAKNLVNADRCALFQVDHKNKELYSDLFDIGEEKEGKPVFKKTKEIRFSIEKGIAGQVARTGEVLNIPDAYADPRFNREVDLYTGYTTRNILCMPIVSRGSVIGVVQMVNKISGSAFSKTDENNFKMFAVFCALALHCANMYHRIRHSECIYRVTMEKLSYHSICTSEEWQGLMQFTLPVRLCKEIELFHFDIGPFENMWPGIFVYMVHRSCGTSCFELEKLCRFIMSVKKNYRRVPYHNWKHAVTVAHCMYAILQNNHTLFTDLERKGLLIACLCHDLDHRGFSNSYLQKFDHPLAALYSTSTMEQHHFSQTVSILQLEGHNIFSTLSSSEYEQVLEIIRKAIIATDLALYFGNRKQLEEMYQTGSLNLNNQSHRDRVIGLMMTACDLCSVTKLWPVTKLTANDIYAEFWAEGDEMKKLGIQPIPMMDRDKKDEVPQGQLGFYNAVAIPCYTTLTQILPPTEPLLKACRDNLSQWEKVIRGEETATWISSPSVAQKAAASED

Row | Structure (SMILES) | microsomal CLint at 0.5 μM [1] [µL/min/mg] | IC50 (PDE10A (human)) [nM] | microsomal CLint at 0.5 μM [2] [µL/min/mg]
1 | Cc1cccc(CCN2Cc3nccc(N4CCOCC4)c3C2=O)n1 [compound 466, 6-[2-(6-Methyl-2-pyridyl)ethyl]-4-morpholino-7H-pyrrolo[3,4-b]pyridin-5-one] | > 220 | 100 to 200 | < 100
2 | O=C1c2nccc(-c3cncnc3)c2CN1CCc1ccc2ccccc2n1 [compound 467, 4-Pyrimidin-5-yl-6-[2-(2-quinolyl)ethyl]-5H-pyrrolo[3,4-b]pyridin-7-one] | < 100 | 100 to 200 | < 100
3 | O=C1c2c(-c3ccncc3)ccnc2CN1CCc1ccc2sccc2n1 [compound 472, 4-(4-Pyridyl)-6-(2-thieno[3,2-b]pyridin-5-ylethyl)-7H-pyrrolo[3,4-b]pyridin-5-one] | 100 to 220 | < 100 | 100 to 220
4 | Cc1cnc(CCN2Cc3nccc(-c4ccncc4)c3C2=O)c(C)c1 [compound 473, 6-[2-(3,5-Dimethyl-2-pyridyl)ethyl]-4-(4-pyridyl)-7H-pyrrolo[3,4-b]pyridin-5-one] | 100 to 220 | 100 to 200 | 100 to 220
5 | Cc1ccc(CCN2Cc3nccc(-c4ccncc4)c3C2=O)nc1C [compound 474, 6-[2-(5,6-Dimethyl-2-pyridyl)ethyl]-4-(4-pyridyl)-7H-pyrrolo[3,4-b]pyridin-5-one trifluoroacetate] | 100 to 220 | 100 to 200 | 100 to 220
6 | Cc1ccc(CCN2Cc3nccc(N4CCS(=O)(=O)CC4)c3C2=O)nc1 [compound 479, 4-(1,1-Dioxo-1,4-thiazinan-4-yl)-6-[2-(5-methyl-2-pyridyl)ethyl]-7H-pyrrolo[3,4-b]pyridin-5-one trifluoroacetate] | < 100 | 200 to 500 | < 100
7 | Cc1ccc(CCN2Cc3nccc(-c4ccncc4)c3C2=O)nc1 [compound 481, 6-[2-(5-Methyl-2-pyridyl)ethyl]-4-(4-pyridyl)-7H-pyrrolo[3,4-b]pyridin-5-one trifluoroacetate] | < 100 | 200 to 500 | < 100
8 | O=C1c2c(cccc2N2CCOCC2)CN1CCc1cnc2ccccc2n1 [compound 482, 7-Morpholino-2-(2-quinoxalin-2-ylethyl)isoindolin-1-one] | < 100 | 100 to 200 | < 100
9 | COc1cccc(CCN2Cc3nccc(N4CCOCC4)c3C2=O)n1 [compound 483, 6-[2-(6-Methoxy-2-pyridyl)ethyl]-4-morpholino-7H-pyrrolo[3,4-b]pyridin-5-one] | < 100 | < 100 | < 100
10 | [2H]C1([2H])OC([2H])([2H])C([2H])([2H])N(c2ccnc3c2C(=O)N(CCc2ccc4ccccc4n2)C3)C1([2H])[2H] [compound 485, 4-(2,2,3,3,5,5,6,6-Octadeuteriomorpholin-4-yl)-6-[2-(2-quinolyl)ethyl]-7H-pyrrolo[3,4-b]pyridin-5-one] | 100 to 220 | < 100 | 100 to 220
11 | O=C1c2c(N3CCOCC3)ccnc2CN1CCc1ccc(-c2ccccc2)cn1 [compound 486, 4-Morpholino-6-[2-(5-phenyl-2-pyridyl)ethyl]-7H-pyrrolo[3,4-b]pyridin-5-one] | > 220 | < 100 | 100 to 220
12 | O=C1c2c(-c3ccncc3)ccnc2CN1CCc1ccc(-c2ccccc2)cn1 [compound 488, 6-[2-(5-Phenyl-2-pyridyl)ethyl]-4-(4-pyridyl)-7H-pyrrolo[3,4-b]pyridin-5-one trifluoroacetate] | > 220 | 200 to 500 | 100 to 220
13 | Cc1cnc(CCN2Cc3nccc(N4CCOCC4)c3C2=O)c(C)c1 [compound 489, 6-[2-(3,5-Dimethyl-2-pyridyl)ethyl]-4-morpholino-7H-pyrrolo[3,4-b]pyridin-5-one] | 100 to 220 | < 100 | 100 to 220
14 | O=C1c2c(N3CCOCC3)ccnc2CN1CCc1ccc2sccc2n1 [compound 491, 4-Morpholino-6-(2-thieno[3,2-b]pyridin-5-ylethyl)-7H-pyrrolo[3,4-b]pyridin-5-one] | 100 to 220 | < 100 | 100 to 220
15 | O=C1c2c(N3CCOCC3)ccnc2CN1CCc1cn2cc(F)ccc2n1 [compound 493, 6-[2-(6-Fluoroimidazo[1,2-a]pyridin-2-yl)ethyl]-4-morpholino-7H-pyrrolo[3,4-b]pyridin-5-one trifluoroacetate] | < 100 | < 100 | < 100
16 | O=C1c2c(-c3ccncc3)ccnc2CN1CCc1cn2cc(F)ccc2n1 [compound 494, 6-[2-(6-Fluoroimidazo[1,2-a]pyridin-2-yl)ethyl]-4-(4-pyridyl)-7H-pyrrolo[3,4-b]pyridin-5-one trifluoroacetate] | < 100 | < 100 | < 100
17 | O=C1c2c(N3CCOCC3)ccnc2CN1CCc1cnc2ccccc2n1 [compound 495, 4-Morpholino-6-(2-quinoxalin-2-ylethyl)-7H-pyrrolo[3,4-b]pyridin-5-one trifluoroacetate] | < 100 | < 100 | < 100
18 | Cc1cccn2cc(CCN3Cc4nccc(-c5ccncc5)c4C3=O)nc12 [compound 496, 6-[2-(8-Methylimidazo[1,2-a]pyridin-2-yl)ethyl]-4-(4-pyridyl)-7H-pyrrolo[3,4-b]pyridin-5-one trifluoroacetate] | < 100 | < 100 | < 100
19 | CCc1ccc(CCN2Cc3nccc(-c4ccncc4)c3C2=O)nc1 [compound 501, 6-[2-(5-Ethyl-2-pyridyl)ethyl]-4-(4-pyridyl)-7H-pyrrolo[3,4-b]pyridin-5-one trifluoroacetate] | 100 to 220 | 100 to 200 | < 100
20 | COc1cccc(CCN2Cc3nccc(-c4cccnc4)c3C2=O)n1 [compound 503, 6-[2-(6-Methoxy-2-pyridyl)ethyl]-4-(3-pyridyl)-7H-pyrrolo[3,4-b]pyridin-5-one trifluoroacetate] | 100 to 220 | 100 to 200 | 100 to 220
21 | O=C1c2c(N3CCOCC3)ccnc2CN1CCc1ccc(Cl)cn1 [compound 505, 6-[2-(5-Chloro-2-pyridyl)ethyl]-4-morpholino-7H-pyrrolo[3,4-b]pyridin-5-one] | < 100 | 200 to 500 | < 100
22 | Cc1cnc(CCN2Cc3nccc(-c4ccncc4)c3C2=O)cc1C [compound 507, 6-[2-(4,5-Dimethyl-2-pyridyl)ethyl]-4-(4-pyridyl)-7H-pyrrolo[3,4-b]pyridin-5-one trifluoroacetate] | > 220 | 200 to 500 | 100 to 220
23 | [2H]c1nc2c(c(N3C([2H])([2H])C([2H])([2H])OC([2H])([2H])C3([2H])[2H])c1[2H])C(=O)N(C([2H])([2H])Cc1nc3c([2H])c([2H])c([2H])c([2H])c3c([2H])c1[2H])C2([2H])[2H] [compound 510, 2,3,7,7-Tetradeuterio-6-[1,1-dideuterio-2-(3,4,5,6,7,8-hexadeuterio-2-quinolyl)ethyl]-4-(2,2,3,3,5,5,6,6-octadeuteriomorpholin-4-yl)pyrrolo[3,4-b]pyridin-5-one] | > 220 | < 100 | 100 to 220
24 | O=C1c2c(-c3ccncc3)ccnc2CN1CCc1ccc2ncccc2n1 [compound 512, 6-[2-(1,5-Naphthyridin-2-yl)ethyl]-4-(4-pyridyl)-7H-pyrrolo[3,4-b]pyridin-5-one] | < 100 | < 100 | < 100
25 | [2H]c1nc2c(c(N3CCOCC3)c1[2H])C(=O)N(CC([2H])([2H])c1nc3c([2H])c([2H])c([2H])c([2H])c3c([2H])c1[2H])C2([2H])[2H] [compound 513, 2,3,7,7-Tetradeuterio-6-[2,2-dideuterio-2-(3,4,5,6,7,8-hexadeuterio-2-quinolyl)ethyl]-4-morpholino-pyrrolo[3,4-b]pyridin-5-one] | > 220 | < 100 | 100 to 220
26 | O=C1c2c(N3CCOCC3)ccnc2CN1CCc1ccc2ncccc2n1 [compound 514, 4-Morpholino-6-[2-(1,5-naphthyridin-2-yl)ethyl]-7H-pyrrolo[3,4-b]pyridin-5-one] | < 100 | < 100 | < 100
27 | CCc1csc(CCN2Cc3nccc(N4CCOCC4)c3C2=O)n1 [compound 516, 6-[2-(4-Ethylthiazol-2-yl)ethyl]-4-morpholino-7H-pyrrolo[3,4-b]pyridin-5-one] | 100 to 220 | < 100 | < 100
28 | O=C1c2c(N3CCOCC3)ccnc2CN1CCc1nc(C2CC2)cs1 [compound 518, 6-[2-(4-Cyclopropylthiazol-2-yl)ethyl]-4-morpholino-7H-pyrrolo[3,4-b]pyridin-5-one] | 100 to 220 | < 100 | < 100
29 | Cc1nc(CCN2Cc3nccc(N4CCOCC4)c3C2=O)sc1C [compound 519, 6-[2-(4,5-Dimethylthiazol-2-yl)ethyl]-4-morpholino-7H-pyrrolo[3,4-b]pyridin-5-one] | > 220 | < 100 | < 100
